# Measurements as given in US8519154B2, “Method for treatment of bronchial asthma” (Council of Scientific & Industrial Research, priority 2011, dated 2013).
# Legend:
# Male wistar rats = experiment: Blood pressure, heart rate and respiratory rate by telemetry; assay type: in vivo; set-up: RR: unit not given beside the values; settings: for RR / HR / DBP / SBP: 50 mg/kg i.v.; for HR: in bpm (unit assumed); for DBP / SBP: in mmHg (unit assumed)
# Procedure: Male wistar rats of approximately 6 months of age were anaesthetised with a mixture of ketamine (40 mg/kg) and xylazine (5 mg/kg) and fitted with TL11M2-C50PXT telemetry transmitters (Data Sciences Intl., St. Paul, Minn., USA) in the peritoneal cavity by performing surgery. Experiments were performed 15 days after surgery. Individual rats were placed in plastic cage on top of a receiver (RLA 2000, Data Science) for the measurement of systolic BP, diastolic BP, Heart rate and respiratory rate. The signals from the transmitters were received by two RLA 2000 receivers and transmitted via a Data Exchange Matrix to a Dataquest PCI card CQ 2240 in the computer. The data were interpreted by the Dataquest program A.R.T. version 2.2 Gold Version.
# mice (Balb/c) = experiment: 28 d sub-acute oral toxicity (OECD TG 407); assay type: in vivo; settings: for Protein: normal 6-9; for SGOT: normal 19@25° C.; for Glucose: normal 55-130; for Bilirubin: normal <1.1; for SGPT: normal <22 @25° C.; for CMI DTH (% increase in paw vol): SRBC sensitized; for Total Ig IgG / Total Ig IgM: serum, ELISA; for % viability BM / % viability LN / % viability Spleen: trypan blue
# Procedure: (§1) The study was performed according to the guidelines laid in OECD TG 407. Young healthy adult mice (Balb/c) weighing between 28 to 35 g were employed and randomly assigned to the control and treatment groups and kept in their cages for at least five days prior to the start of the treatment to allow for acclimatisation to the laboratory conditions. 10 animals (five female and five male) were used at each dose level. Local standards of laboratory animal care were maintained. The temperature in the experimental animal room was maintained at 24° C.±3° C. and the relative humidity between 40 to 60% with 12 hours artificial light and 12 hours dark photoperiod. For feeding, conventional sterile pellet diets (Nay Chetan) with an unlimited supply of RO drinking water was given. A sample of the diet was retained until finalisation of the report. Animals were housed in small groups of 5 of the same sex.
# (§2) Blunt ended canula was used for gavaging. During the period of administration of Compound I, the animals are observed closely (30 minutes cage side observation), each day for signs of toxicity till the day of sacrifice. Weights of animals and measurements of food consumption were made once in a week.
# (§3) Experimental animals were sacrificed on day 29. Before sacrifice, blood was drawn from the retro-orbital sinus of mice with the help of heparinised capillary tubes and split in to two parts. Part taken in tubes containing EDTA was used for hematological studies with the help of Automatic Hematology Analyzer (Medonic). The other part was allowed to clot for 2 h and serum separated by centrifugation at 3000 rpm for 5 min, and subsequently used for clinical biochemistry and immunoglobuling profiling. Post sacrifice, the individual organs were dissected out, weighed and percentage relative organ weights determined. Spleen, lymphnode and bone marrow cell viability were judged by trypan blue dye exclusion test.
# (§4) The blood left after the hematological studies were allowed to clot for 2 h and serum separated by centrifugation at 3000 rpm for 5 min and subsequently used for clinical biochemistry. Details of the clinical biochemistry are given below in table II.
# (§5) Serum concentrations of total IgG and IgM were measured by ELISA and Cell mediated immunity was measured in terms of % increase in paw volume in mice sensitized with SRBC.
# (§6) Histopathology was carried out on vital organs by fixing organs in 10% buffered formalin saline for 72 h followed by washing, dehydrating and embedding on paraffin wax. Paraffin blocks were sectioned (4-5μ tick), deparaffinised and stained with hematoxylin and eosin for viewing and photography under microscope (Nikion, Japan). Histopathology was performed in the control and high dose groups unless mentioned otherwise.
# [1] = 28 d sub-acute oral toxicity (OECD TG 407); assay type: in vivo, mice; settings: both sexes, Balb/c, mouse, in vivo; mice, 28 d oral
# Procedure: as §1, §2, §3, §4, §5, §6
smiles,measurement,setting,value
"COc1cc(C=O)cc2c1[nH]c1ccccc12 [Compound I, 1-methoxy-3-formyl-9H carbazole]",RR,Male wistar rats; 0 mins,89.4 ± 1.4
same,HR,Male wistar rats; 0 mins,242.1 ± 9.7
same,DBP,Male wistar rats; 0 mins,71.7 ± 10.2
same,SBP,Male wistar rats; 0 mins,112 ± 2.89
same,RR,Male wistar rats; 1 hr,85.77 ± 8.9
same,HR,Male wistar rats; 1 hr,309.1 ± 45.9
same,DBP,Male wistar rats; 1 hr,82.1 ± 4.5
same,SBP,Male wistar rats; 1 hr,115.4 ± 3.6
same,RR,Male wistar rats; 2 hr,89.5 ± 2.56
same,HR,Male wistar rats; 2 hr,261 ± 13.8
same,DBP,Male wistar rats; 2 hr,77.5 ± 6.07
same,SBP,Male wistar rats; 2 hr,114.5 ± 2.8
same,RR,Male wistar rats; 3 hr,84.5 ± 3.5
same,HR,Male wistar rats; 3 hr,272.7 ± 17.5
same,DBP,Male wistar rats; 3 hr,78.5 ± 8.1
same,SBP,Male wistar rats; 3 hr,110.2 ± 4.5
same,RR,Male wistar rats; 4 hr,96.3 ± 2.1
same,HR,Male wistar rats; 4 hr,273.1 ± 17.06
same,DBP,Male wistar rats; 4 hr,75.9 ± 8.2
same,SBP,Male wistar rats; 4 hr,108.7 ± 5.2
same,"change in blood pressure, heart rate and respiratory rate","Male wistar rats; rats, before and after treatment","No significant change in blood pressure, heart rate and respiratory rate"
same,HGB,"mice (Balb/c); 42 mg/kg, 28 d oral",9.47 ± 1.7 g/dL
same,PLT,"mice (Balb/c); 42 mg/kg, 28 d oral",439 ± 76 × 10^3/mm^3
same,RBC,"mice (Balb/c); 42 mg/kg, 28 d oral",7.29 ± 1.46 ×10^6/mm^3
same,WBC,"mice (Balb/c); 42 mg/kg, 28 d oral",6.7 ± 1.2 10^3/mm^3
same,Protein,"mice (Balb/c); 42 mg/kg, 28 d oral",7.93 ± 1.33 g/dL
same,SGOT,"mice (Balb/c); 42 mg/kg, 28 d oral",15.51 ± 3.6 U/L
same,Glucose,"mice (Balb/c); 42 mg/kg, 28 d oral",127 ± 17 mg/dL
same,Bilirubin,"mice (Balb/c); 42 mg/kg, 28 d oral",0.74 ± 0.08 mg/dL
same,SGPT,"mice (Balb/c); 42 mg/kg, 28 d oral",18.54 ± 2.1 U/L
same,CMI DTH (% increase in paw vol),"mice (Balb/c); 47 mg/kg, 28 d oral",17.23 ± 4.4 % increase in paw vol
same,Total Ig IgG,"mice (Balb/c); 47 mg/kg, 28 d oral",3.1 ± 0.85 mg/mL
same,Total Ig IgM,"mice (Balb/c); 47 mg/kg, 28 d oral",1.48 ± 0.12
same,% viability BM,"mice (Balb/c); 47 mg/kg, 28 d oral",97.3 ± 3.5%
same,% viability LN,"mice (Balb/c); 47 mg/kg, 28 d oral",95.9 ± 5.4%
same,% viability Spleen,"mice (Balb/c); 47 mg/kg, 28 d oral",96.8 ± 4.8%
same,glucose vs normal range,mice (Balb/c); 93 mg/kg,marginally higher than the normal range
same,symptoms of toxicity,mice (Balb/c); 93 mg/kg body weight,no symptoms of toxicity
same,HGB,"mice (Balb/c); 93 mg/kg, 28 d oral",12.8 ± 2.4 g/dL
same,PLT,"mice (Balb/c); 93 mg/kg, 28 d oral",426 ± 43 × 10^3/mm^3
same,RBC,"mice (Balb/c); 93 mg/kg, 28 d oral",8.52 ± 1.4 ×10^6/mm^3
same,WBC,"mice (Balb/c); 93 mg/kg, 28 d oral",5.9 ± 1.4 10^3/mm^3
same,CMI DTH (% increase in paw vol),"mice (Balb/c); 93 mg/kg, 28 d oral",19.2 ± 6.3 % increase in paw vol
same,Protein,"mice (Balb/c); 93 mg/kg, 28 d oral",8.73 ± 2.8 g/dL
same,SGOT,"mice (Balb/c); 93 mg/kg, 28 d oral",12.9 ± 1.92 U/L
same,Glucose,"mice (Balb/c); 93 mg/kg, 28 d oral",133 ± 13 mg/dL
same,Bilirubin,"mice (Balb/c); 93 mg/kg, 28 d oral",0.17 ± 0.068 mg/dL
same,SGPT,"mice (Balb/c); 93 mg/kg, 28 d oral",10.2 ± 2.9 U/L
same,Total Ig IgG,"mice (Balb/c); 93 mg/kg, 28 d oral",3.6 ± 1.26 mg/mL
same,Total Ig IgM,"mice (Balb/c); 93 mg/kg, 28 d oral",1.12 ± 0.33
same,% viability BM,"mice (Balb/c); 93 mg/kg, 28 d oral",96.8 ± 4.6%
same,% viability LN,"mice (Balb/c); 93 mg/kg, 28 d oral",96.5 ± 4.6%
same,% viability Spleen,"mice (Balb/c); 93 mg/kg, 28 d oral",95.4 ± 5.3%
same,SGOT vs normal range,mice (Balb/c); 187 mg/kg,marginally higher than the normal range
same,glucose level vs normal range,mice (Balb/c); 187 mg/kg,much higher than the normal range
same,kidney histopathology,mice (Balb/c); 187 mg/kg,sign of necrosis in the corticular region
same,signs of toxicity,mice (Balb/c); 187 mg/kg,Few signs of toxicity
same,HGB,"mice (Balb/c); 187 mg/kg, 28 d oral",13.2 ± 1.8 g/dL
same,PLT,"mice (Balb/c); 187 mg/kg, 28 d oral",472 ± 65 × 10^3/mm^3
same,RBC,"mice (Balb/c); 187 mg/kg, 28 d oral",8.6 ± 0.67 ×10^6/mm^3
same,WBC,"mice (Balb/c); 187 mg/kg, 28 d oral",5.9 ± 4.1 10^3/mm^3
same,CMI DTH (% increase in paw vol),"mice (Balb/c); 187 mg/kg, 28 d oral",17.4 ± 6.6 % increase in paw vol
same,Protein,"mice (Balb/c); 187 mg/kg, 28 d oral",7.27 ± 0.85 g/dL
same,SGOT,"mice (Balb/c); 187 mg/kg, 28 d oral",20.2 ± 0.85 U/L
same,Glucose,"mice (Balb/c); 187 mg/kg, 28 d oral",183 ± 20 mg/dL
same,Bilirubin,"mice (Balb/c); 187 mg/kg, 28 d oral",0.91 ± 0.057 mg/dL
same,SGPT,"mice (Balb/c); 187 mg/kg, 28 d oral",15.83 ± 2.32 U/L
same,Total Ig IgG,"mice (Balb/c); 187 mg/kg, 28 d oral",2.9 ± 0.56 mg/mL
same,Total Ig IgM,"mice (Balb/c); 187 mg/kg, 28 d oral",1.04 ± 0.34
same,% viability BM,"mice (Balb/c); 187 mg/kg, 28 d oral",94.67 ± 4.9%
same,% viability LN,"mice (Balb/c); 187 mg/kg, 28 d oral",97.4 ± 3.9%
same,% viability Spleen,"mice (Balb/c); 187 mg/kg, 28 d oral",98.4 ± 4.4%
same,DTH response vs sham treated control,mice (Balb/c); SRBC sensitized mice,insignificant changes
same,acute oral LOAEL,"mice (Balb/c); mice, 28 d oral",187 mg/kg
same,"viability of bone marrow cells, splenocyte and lymph node lymphocyte vs sham control",mice (Balb/c); trypan blue dye exclusion test,No significant changes
same,NOAEL at 28 days,[1],93 mg/kg
